How the values were obtained:
Type in all cases: cell-based
Rat EpiSCs = assay: Oct-4 immunostaining of rat EpiSCs grown in supplemented CDM; details: for expression of the pluripotency marker Oct-4: after one week in CDM, 5B431542 10 uM, BMP4 10 ng/ml + 5B431542 10 uM, Activin 10 ng/ml + Noggin 100 ng/ml
Experimental: hESCs, mouse ESCs or EpiSCS were fixed for 20 minutes at 4° C. in 4% paraformaldehyde (PFA) and then washed three times in PBS. Cells were incubated for 20 minutes at room temperature in PBS containing 10% goat serum (Serotec) and subsequently incubated over night at 4° C. with primary antibody diluted in 1% goat serum in PBS as follows: SSEA-3 (1:100, Santa Cruz), SSAE-1 (1:25, gift from PW Andrews), Tra-1-60 (1:100, Santa CruZ), Oct-4 (1:100, SantaCruz), Sox2 (1:100, Abeam ab15830), Nanog (1:100, Abeam), Blirnpl (Abeam). Cells were then washed three times in PBS and incubated with fluorescein-Isothiocyanate-conjugated anti-mouse IgG or IgM (Sigma 1:200 in 1% goat serum in PBS) or rat IgM (Jackson laboratory 1:300 in goat serum in PBS) or rabbit IgG (Jackson laboratory 1:200 in donkey serum in PBS) for two hours at room temperature. Unbound secondary antibody was removed by 3 washes in PBS. Hoechst 33258 was added to the first wash (Sigma 1:10000).
Rat EpiSCs were grown in CDM supplemented in the presence of Activin (10 ng/ml), 5B431542 (10 uM), BMP4 10 ng/ml+5B431542 (10 uM) or Activin (10 ng/ml)+Noggin (IOOng/ml). After one week, the expression of the pluripotency marker Oct-4 was analysed using immunostaining. […] Similar results were obtained with mouse EpiSCs.

[1] = system: mouse late epiblast layer; assay: Derivation of EpiSC lines from mouse late epiblast layers; details: dissected mouse epiblasts in CDM with BMP4 (50 ng/ml) and LIF
Experimental: Similar culture conditions were tested for derivation of pluripotent cells from pre- and post-implantation rodent embryos. […] For derivation at post implantation stages, the late epiblast layer of embryos at pre- or early gastrulation stages (5.5 dpc or 6.5 dpc) was separated from extraembryonic tissues by microdissection using Cell Dissociation Buffer (Invitrogen) at 4° C. for 15-20 min. to promote dissociation of the layers. […] After 24 hours, the epiblast layers formed colonies of compact cells having a high nucleo-cytoplasmic ratio, a characteristic morphological trait of pluripotent embryonic stem cells. Cells on the edge of the colony started to differentiate the following day, thereby producing a broad ring of stromal cells surrounding smaller aggregates of compact cells. These heterogeneous populations proceeded to form larger colonies of cells 4-5 days later. The latter colonies were picked, dissociated into smaller clumps using collagenase IV (Invitrogen) and then transferred to new dishes. Resulting colonies were passaged again 5 days later using collagenase and mechanical dissociation. […] These cells were designated Epiblast Stem Cells (EpiSCs) on the basis of their origin from pure epiblast cell layers.
Dissected mouse epiblasts were grown in CDM supplemented with BMP4 (50 ng/ml) and LIF, two growth factors required to maintain the pluripotent status of mouse ESCs.

rat epiblast layers = assay: Derivation of EpiSC lines from rat epiblast layers; details: addition to CDM supplemented with Activin
From the text: The hypothesis that Activin and FGF signalling in pluripotency are conserved in mammalian development is supported by the ability of Activin/Nodal signalling to maintain long-term pluripotency of both human ESCs and mouse EpiSCs. As a further test of this hypothesis, we attempted to derive EpiSCs from rats, a species from which embryonic stem cell derivation has been problematic. Following the method we established in the mouse, epiblast layers were dissected from rat embryos at pre-gastrula stages (E 7.5-8.5) and grown on fibronectin-coated or FBS coated plates in CDM supplemented with Activin and FGF. […] Nevertheless, four EpiSC lines were derived out of 14 embryos of the Wistar strain and 1 EpiSC line was derived out of 20 embryos from the Sprague-Dawley strain using CDM supplemented with Activin alone.

| Molecule | expression of the pluripotency marker Oct-4 (Rat EpiSCs) | derivation of EpiSC lines [1] | differentiation of early epiblast cultures (rat epiblast layers) | also measured |
| --- | --- | --- | --- | --- |
| NC(=O)c1ccc(-c2nc(-c3ccccn3)c(-c3ccc4c(c3)OCO4)[nH]2)cc1 [5B431542, reference compound] | loss of Oct-4 expression |  |  | differentiation of EpiSCs (Rat EpiSCs; inhibition of Activin/Nodal signalling): induced rapid differentiation of EpiSCs |
| BMP4: growth factor required with LIF to maintain mouse ESC pluripotency | not able to rescue the pluripotent status of EpiSCs | not able to derive any EpiSC lines |  |  |
| EGF: growth factor added to rat epiblast cultures |  |  | induced differentiation |  |
| FGF2: fibroblast growth factor 2 |  |  | induced differentiation |  |
| HGF: growth factor added to rat epiblast cultures |  |  | induced differentiation |  |
| LIF: Leukaemia Inhibitory Factor |  | not able to derive any EpiSC lines |  |  |

Reference: patent US9157067B2, “Pluripotent cells from mammalian late epiblast layer” (priority 2006, dated 2015)
